Legend:
[1] = in vivo; cited from earlier work
[2] = BPD-MA biodistribution by LIFS, Study #1; format: in vivo, male Lobund-Wistar rats; conditions: for I(690 nm)/I(540 nm), kidney / I(690 nm)/I(540 nm), large bowel / I(690 nm)/I(540 nm), liver / I(690 nm)/I(540 nm), mesenteric lymph nodes (MCLN) / I(690 nm)/I(540 nm), metast. L. node / I(690 nm)/I(540 nm), muscle / I(690 nm)/I(540 nm), non-met L. node / I(690 nm)/I(540 nm), skin / I(690 nm)/I(540 nm), small bowel: mean ± SD
Text: (§1) The experimental arrangement used to measure the fluorescence spectra during abdominal exploration included a Helium-cadmium laser (Omnichrome, Chino, Calif.) operating at 442 nm as an excitation source. A 400 micron core diameter fiber was directed at the tissue in contact mode producing a low power (17 mW) illumination. Using the same fiber, reflected and emitted light was returned to the input of a SPEX 500 spectrometer (1422 G EG&G).
(§2) Laser output was reflected at a right angle by a dichroic mirror (HR/442 nm-H7>500 nm, CVI, New Mexico) and was focused at the input of a 400 micron core diameter fiberoptic probe. The excitation output of the laser at the distal end of the fiber was 17 mW. Fluorescence was collected using the same fiber and was transmitted through the dichroic beamsplitter and guided via a fiber bundle to a 0.5 spectrograph (100 g/mm diffraction grating with a split width of 50 microns). The light was then imaged at the modified output port. A 1024 element linear diode array detector (EG&G 1422G) was attached to the exit port, and the signal was directed to a multichannel intensifier. A longpass glass filter (Schott GG475) was used to exclude the excitation light from the detector and conversions were made by an analog to digital converter and automatically stored by a computer. […] Background spectra were recorded before excitation and subtracted from the resulting data. The detection system, including the detector attenuation filter, lenses and spectrograph, was not altered or corrected for a uniform spectral response.
(§3) Spectra from the surfaces of tumor (T), skin (S), muscle (M), liver (L), kidney (K), spleen (Sp), stomach (St), small bowel (SB) and large bowel (LB) were acquired and analyzed by the OMA. […] (FIG. 1 is a schematic representation of this experimental arrangement.) A series of spectra for Photofrin and BPD-MA were recorded from photosensitized animals. (FIGS. 2 and 3). The fluorescence intensities at 540 nm (auto-fluorescence) and 630 nm (Photofrin) or 690 nm (BPD-MA) were simultaneously monitored at three sites for each organ. By using the ratio of these intensities, (I630 nm /I540 nm) or (I690 nm /540 nm), a relative value could be assigned to each area studied. In addition, this intensity ratio eliminated any geometric factor (fiber position) influence in the calibration, as well as calibration errors. The corresponding intensity ratios were used as an index for drug presence in the various tissues.
(§4) The fluorescence emitted from cancerous and normal tissues of male Lobund-Wistar rats was investigated (Lobund Laboratory, Notre Dame University, Id.). All tumors were subcutaneously implanted by inoculating 10^5 viable cells of Pollard rat prostatic adenocarcinoma (PA-III) into the right flank of each animal. This tumor model was selected because it is known to metastasize uniformly and spontaneously from extravascular sites only through ipsilateral lymphatic channels. Because of this tumor's unique, predictable spread, the contralateral side of the animal could be used as a control. In addition, cancer detection is facilitated with this model because rats with PA-III cells survive beyond forty days after implantation without evidence of physical impairment.
(§5) Two separate experiments were performed to assess the biodistribution of BPD-MA. The first study involved 21 animals and two doses of BPD-MA, 0.25 mg/kg and 0.50 mg/kg, to determine the concentration effect of BPD-MA in various tissues. The second study involved 81 animals and 0.75 mg/kg of BPD-MA to determine the biodistribution of BPD-MA and the sensitivity and specificity of LIFS biodistribution measurements.
BPD-MA (QLT Phototherapeutics, Inc., Vancouver, Canada) was administered to 21 animals intravenously. The animals were divided into three groups of seven animals each and injected with two different doses of BPD-MA, 0.25 mg/kg (n=7) and 0.50 mg/kg (n=7) 4-6 hours prior to surgical exploration. Seven animals served as a control. […]

[3] = BPD-MA biodistribution by LIFS, Study #1; set-up: species or system male Lobund-Wistar rats; conditions: rat, in vivo, iv, 0.5 mg/kg
[4] = after excitation by blue light; cited from earlier work
[5] = set-up: species or system male Lobund-Wistar rats; conditions: rat, in vivo, iv, 0.75 mg/kg
Text: as §1, §2, §3, §4, §5
BPD-MA (QLT Phototherapeutics, Inc., Vancouver, Canada) was administered intravenously in a dose of 0.75 mg/kg to 81 animals 4 hours prior to surgical exploration.
As in Study #1, the animals were anesthetized with Ketamine 40 mg/kg and Xylazine 5.0 mg/kg intraperitoneally, and the abdomens opened through a midline incision. […]

[6] = Photofrin biodistribution by laser induced fluorescence spectroscopy (LIFS); format: in vivo, male Lobund-Wistar rats
Text: as §1, §2, §3, §4
After forty-two days of observation, Photofrin (QLT Phototherapeutics, Inc., Vancouver, Canada) was administered intraperitoneally to forty-one animals 24-48 hours prior to surgical exploration in doses ranging from 0.25-7.5 mg/kg. Six animals were injected 24 hours prior to surgical exploration with 0.75 mg/kg of Photofrin. Thirty animals were injected with six different concentrations of Photofrin 48 hours prior to surgical exploration (7.5 mg/kg (n=5), 2.5 mg/kg (n=4), 1.5 mg/kg (n=3), 0.75 mg/kg (n=11), 0.50 mg/kg (n=4), and 0.25 mg/kg (n=3)). Five animals which had not been inoculated with PA-III were injected with 0.75 mg/kg 48 hours prior to surgical exploration, and served as a control. […]

[7] = Absorption / fluorescence of the photosensitizer; format: physicochemical; conditions: 442 nm excitation
Text: as §1
Laser output was reflected at a right angle by a dichroic mirror (HR/442 nm-H7>500 nm, CVI, New Mexico) and was focused at the input of a 400 micron core diameter fiberoptic probe. The excitation output of the laser at the distal end of the fiber was 17 mW. Fluorescence was collected using the same fiber and was transmitted through the dichroic beamsplitter and guided via a fiber bundle to a 0.5 spectrograph (100 g/mm diffraction grating with a split width of 50 microns). […] Background spectra were recorded before excitation and subtracted from the resulting data. […]
Spectra from the surfaces of tumor (T), skin (S), muscle (M), liver (L), kidney (K), spleen (Sp), stomach (St), small bowel (SB) and large bowel (LB) were acquired and analyzed by the OMA. […] (FIG. 1 is a schematic representation of this experimental arrangement.) A series of spectra for Photofrin and BPD-MA were recorded from photosensitized animals. […]

[8] = 1.5 mg/kg i.p., 48 h, PA-III rats, mean ± SD
[9] = 2.5 mg/kg i.p., 48 h, PA-III rats, mean ± SD
[10] = 7.5 mg/kg i.p., 48 h, PA-III rats, mean ± SD

Benzoporphyrin derivative monoacid-A [BPD-MA]
Photosensitivity of the skin [1]: dramatically decreased photosensitivity of the skin | I(690 nm)/I(540 nm), kidney ([2]; 4 Hours, 0.25 mg/kg i.v.): 1.04 ± 0.40 | I(690 nm)/I(540 nm), large bowel ([2]; 4 Hours, 0.25 mg/kg i.v.): 1.27 ± 0.30 | I(690 nm)/I(540 nm), liver ([2]; 4 Hours, 0.25 mg/kg i.v.): 7.83 ± 3.69 | I(690 nm)/I(540 nm), mesenteric lymph nodes (MCLN) ([2]; 4 Hours, 0.25 mg/kg i.v.): 1.40 ± 0.27 | I(690 nm)/I(540 nm), metast. L. node ([2]; 4 Hours, 0.25 mg/kg i.v.): 3.19 ± 2.31 | I(690 nm)/I(540 nm), muscle ([2]; 4 Hours, 0.25 mg/kg i.v.): 1.73 ± 0.47 | I(690 nm)/I(540 nm), non-met L. node ([2]; 4 Hours, 0.25 mg/kg i.v.): 3.55 ± 1.77 | I(690 nm)/I(540 nm), skin ([2]; 4 Hours, 0.25 mg/kg i.v.): 0.31 ± 0.12 | I(690 nm)/I(540 nm), small bowel ([2]; 4 Hours, 0.25 mg/kg i.v.): 7.63 ± 2.73 | I(690 nm)/I(540 nm), kidney ([2]; 4 Hours, 0.50 mg/kg i.v.): 1.57 ± 0.32 | I(690 nm)/I(540 nm), large bowel ([2]; 4 Hours, 0.50 mg/kg i.v.): 1.59 ± 0.45 | I(690 nm)/I(540 nm), liver ([2]; 4 Hours, 0.50 mg/kg i.v.): 15.74 ± 9.25 | I(690 nm)/I(540 nm), mesenteric lymph nodes (MCLN) ([2]; 4 Hours, 0.50 mg/kg i.v.): 3.12 ± 0.99 | I(690 nm)/I(540 nm), metast. L. node ([2]; 4 Hours, 0.50 mg/kg i.v.): 6.73 ± 2.39 | I(690 nm)/I(540 nm), muscle ([2]; 4 Hours, 0.50 mg/kg i.v.): 1.62 ± 0.82 | I(690 nm)/I(540 nm), non-met L. node ([2]; 4 Hours, 0.50 mg/kg i.v.): 2.65 ± 0.62 | I(690 nm)/I(540 nm), skin ([2]; 4 Hours, 0.50 mg/kg i.v.): 0.50 ± 0.17 | I(690 nm)/I(540 nm), small bowel ([2]; 4 Hours, 0.50 mg/kg i.v.): 9.91 ± 5.08 | I(690 nm)/I(540 nm), kidney ([2]; 6 Hours, 0.25 mg/kg i.v.): 0.78 ± 0.19 | I(690 nm)/I(540 nm), large bowel ([2]; 6 Hours, 0.25 mg/kg i.v.): 2.37 ± 1.48 | I(690 nm)/I(540 nm), liver ([2]; 6 Hours, 0.25 mg/kg i.v.): 5.20 ± 2.38 | I(690 nm)/I(540 nm), mesenteric lymph nodes (MCLN) ([2]; 6 Hours, 0.25 mg/kg i.v.): 1.43 ± 0.67 | I(690 nm)/I(540 nm), metast. L. node ([2]; 6 Hours, 0.25 mg/kg i.v.): 3.70 ± 2.82 | I(690 nm)/I(540 nm), muscle ([2]; 6 Hours, 0.25 mg/kg i.v.): 0.78 ± 0.26 | I(690 nm)/I(540 nm), non-met L. node ([2]; 6 Hours, 0.25 mg/kg i.v.): 2.77 ± 2.25 | I(690 nm)/I(540 nm), skin ([2]; 6 Hours, 0.25 mg/kg i.v.): 0.30 ± 0.15 | I(690 nm)/I(540 nm), small bowel ([2]; 6 Hours, 0.25 mg/kg i.v.): 4.98 ± 2.83 | BPD-MA retention in organs with time ([2]; rat, in vivo, iv): BPD-MA retention in all organs decreased with time | Fluorescence intensity ratio (I630 nm/I540 nm), non-metastatic tissue ([2]; rat, in vivo, iv, 0.5 mg/kg): 2.65 ± 0.62 | I(690 nm)/I(540 nm), spleen ([2]; rat, in vivo, iv, 0.5 mg/kg): 1.57 ± 0.31 | I(690 nm)/I(540 nm), stomach ([2]; rat, in vivo, iv, 0.5 mg/kg): 2.95 ± 1.10 | I(690 nm)/I(540 nm), tumor ([2]; rat, in vivo, iv, 0.5 mg/kg): 3.44 ± 1.14 | Fluorescence intensity ratio (I630 nm/I540 nm), metastatic tissue [3]: 6.73 ± 2.39 | Characteristic red fluorescence peak [4]: approximately 690 nm | Fluorescence intensity ratio mean, Left Iliac LN (LILN) [5]: 5.22 | Fluorescence intensity ratio mean, Mesenteric I LN (MC I) [5]: 2.45 | Fluorescence intensity ratio mean, Mesenteric II LN (MC II) [5]: 2.37 | Fluorescence intensity ratio mean, Right Iliac LN (RILN) [5]: 5.86 | Fluorescence intensity ratio mean, Right Inguinal LN (RIN) [5]: 4.72 | Fluorescence intensity ratio mean, Right Para-Aortic LN (RPAR) [5]: 7.40 | Fluorescence intensity ratio mean, Right Sub-Renalis LN (RSBR) [5]: 4.50 | Fluorescence intensity ratio mean, Right Supra-Renalis LN (RSPR) [5]: 4.26 | Fluorescence intensity ratio mean, inflammatory LN [5]: 3.67 | Fluorescence intensity ratio mean, metastatic LN [5]: 6.26 | Fluorescence intensity ratio mean, normal LN [5]: 3.06

Photofrin
Fluorescence intensity ratio (I630 nm/I540 nm), skin [6, 8]: 0.23 ± 0.06 | Fluorescence intensity ratio (I630 nm/I540 nm), small bowel [6, 8]: 0.56 ± 0.08 | Fluorescence intensity ratio (I630 nm/I540 nm), spleen [6, 8]: 1.25 ± 0.35 | Fluorescence intensity ratio (I630 nm/I540 nm), stomach [6, 8]: 0.92 ± 0.12 | Fluorescence intensity ratio (I630 nm/I540 nm), tumor [6, 8]: 0.36 ± 0.01 | Fluorescence intensity ratio (I630 nm/I540 nm), non metas L. node [6, 9]: 1.75 ± 1.06 | Fluorescence intensity ratio (I630 nm/I540 nm), skin [6, 9]: 0.22 ± 0.04 | Fluorescence intensity ratio (I630 nm/I540 nm), small bowel [6, 9]: 0.57 ± 0.30 | Fluorescence intensity ratio (I630 nm/I540 nm), spleen [6, 9]: 0.72 ± 0.25 | Fluorescence intensity ratio (I630 nm/I540 nm), stomach [6, 9]: 0.26 ± 0.01 | Fluorescence intensity ratio (I630 nm/I540 nm), tumor [6, 9]: 0.70 ± 0.43 | Fluorescence intensity ratio (I630 nm/I540 nm), skin [6, 10]: 0.25 ± 0.04 | Fluorescence intensity ratio (I630 nm/I540 nm), small bowel [6, 10]: 0.96 ± 0.33 | Fluorescence intensity ratio (I630 nm/I540 nm), spleen [6, 10]: 1.56 ± 0.68 | Fluorescence intensity ratio (I630 nm/I540 nm), stomach [6, 10]: 0.62 ± 0.24 | Fluorescence intensity ratio (I630 nm/I540 nm), tumor [6, 10]: 2.45 ± 1.00 | Dose at which metastatic and non-metastatic lymph nodes are distinguished (selectivity) ([6]; rat, in vivo, 2880 min): higher than 0.25 mg/kg | Characteristic fluorescence peak [7]: ~ 630 nm

— patent publication US5377676A, “Method for determining the biodistribution of substances using fluorescence spectroscopy” (Cedars-Sinai Medical Center, priority 1993, dated 1995)
